These are literature values, as cited in patent publication US20250231185A1, “Coronavirus T Cell Epitopes, Megapools and Uses Thereof” (La Jolla Institute for Immunology, priority 2021, published 2025).

One series has as its system CD8+ T cells. As to conditions: SARS-CoV-2-derived CD8 epitopes; dominant = recognized by 3 or more donors/different studies; cited from earlier work.
For the substance 594 (YLFDESGEFKL) [compound 594], the Dominant result is given as “Yes (more dominant epitopes are defined by being recognized by 3 or more donors/different studies)”.
628 (PTDNYITTY) [compound 628]: the Dominant result is “Yes (more dominant epitopes are defined by being recognized by 3 or more donors/different studies)”.
In the case of 629 (TDNYITTY) [compound 629], the Dominant entry is “Yes (more dominant epitopes are defined by being recognized by 3 or more donors/different studies)”.
Turning to 632 (QEILGTVSW) [compound 632], the Dominant result is given as “Yes (more dominant epitopes are defined by being recognized by 3 or more donors/different studies)”.
With 660 (HTTDPSFLGRY) [compound 660], the Dominant entry was “Yes (more dominant epitopes are defined by being recognized by 3 or more donors/different studies)”.
Take 661 (TTDPSFLGRY) [compound 661]: the Dominant entry is “Yes (more dominant epitopes are defined by being recognized by 3 or more donors/different studies)”.
Turning to 662 (TTDPSFLGRYM) [compound 662], the Dominant entry is listed as “Yes (more dominant epitopes are defined by being recognized by 3 or more donors/different studies)”.
In the case of 670 (YLATALLTL) [compound 670], the Dominant result is reported as “Yes (more dominant epitopes are defined by being recognized by 3 or more donors/different studies)”.
678 (SAPPAQYEL) [compound 678]: the Dominant entry is listed as “Yes (more dominant epitopes are defined by being recognized by 3 or more donors/different studies)”.
In the case of 683 (ITDVFYKENSY) [compound 683], the Dominant entry is reported as “Yes (more dominant epitopes are defined by being recognized by 3 or more donors/different studies)”.
On to 687 (CTEIDPKLDNY) [compound 687], for which the Dominant entry is “Yes (more dominant epitopes are defined by being recognized by 3 or more donors/different studies)”.

The series is the same for the next values; noted with them: T cell subset (CD4 or CD8) recognizing the SARS-CoV-2-derived epitope; cited from earlier work.
With 585 (DTVIEVQGYK) [compound 585], the Restriction result was “CD8”.
Turning to 586 (QGYKSVNITF) [compound 586], the Restriction entry is reported as “CD8”.
In the case of 587 (FELDERIDKV) [compound 587], the Restriction entry is on record as “CD8”.
Consider 588 (FELDERIDKVL) [compound 588], for which the Restriction result is “CD8”.
As for 589 (ELDERIDKV) [compound 589], the Restriction entry is recorded as “CD8”.
Consider 590 (VLNEKCSAY) [compound 590], for which the Restriction entry is “CD8”.
In the case of 591 (VELGTEVNEF) [compound 591], the Restriction result was “CD8”.
Turning to 592 (SELLTPLGI) [compound 592], the Restriction entry was “CD8”.
Turning to 593 (YLFDESGEF) [compound 593], the Restriction entry is recorded as “CD8”.
For 594 (YLFDESGEFKL) [compound 594], the Restriction entry is given as “CD8”.
As to 595 (FEPSTQYEY) [compound 595], the Restriction result is “CD8”.
Take 596 (DDYQGKPLEF) [compound 596]: the Restriction result is given as “CD8”.
Take 598 (LEFGATSAAL) [compound 598]: the Restriction entry is “CD8”.
With 599 (VEVQPQLEM) [compound 599], the Restriction entry is on record as “CD8”.
In the case of 600 (LEMELTPVV) [compound 600], the Restriction entry was “CD8”.
Consider 601 (MELTPVVQTI) [compound 601], for which the Restriction entry is on record as “CD8”.
As for 602 (TPVVQTIEV) [compound 602], the Restriction entry was “CD8”.
As for 603 (TIEVNSFSGY) [compound 603], the Restriction entry is “CD8”.
As for 604 (IEVNSFSGY) [compound 604], the Restriction entry is “CD8”.
On to 605 (NSFSGYLKL) [compound 605], for which the Restriction result is given as “CD8”.
In the case of 606 (YLKLTDNVY) [compound 606], the Restriction result is reported as “CD8”.
Consider 607 (YLKLTDNVYIK) [compound 607], for which the Restriction result is on record as “CD8”.
As to 608 (EAKKVKPTV) [compound 608], the Restriction result is listed as “CD8”.
On to 609 (VVVNAANVY) [compound 609], for which the Restriction result is given as “CD8”.
610 (YIATNGPLK) [compound 610]: the Restriction entry was “CD8”.
On to 611 (YENFNQHEV) [compound 611], for which the Restriction entry was “CD8”.
As for 612 (LLSAGIFGA) [compound 612], the Restriction result is listed as “CD8”.
For 613 (GADPIHSLR) [compound 613], the Restriction entry was “CD8”.
Regarding 614 (RTNVYLAVF) [compound 614], the Restriction result was “CD8”.
With 615 (AVFDKNLYDK) [compound 615], the Restriction result is “CD8”.
Turning to 616 (NLYDKLVSSFL) [compound 616], the Restriction result is listed as “CD8”.
For the substance 617 (LYDKLVSSF) [compound 617], the Restriction result was “CD8”.
With 618 (KLVSSFLEM) [compound 618], the Restriction result was “CD8”.
Regarding 619 (KIAEIPKEEV) [compound 619], the Restriction result was “CD8”.
For 620 (EVKPFITESK) [compound 620], the Restriction entry is “CD8”.
On to 621 (ESKPSVEQR) [compound 621], for which the Restriction result is reported as “CD8”.
Take 622 (FLTENLLLYI) [compound 622]: the Restriction entry is “CD8”.
Consider 623 (LVSDIDITF) [compound 623], for which the Restriction entry is given as “CD8”.
For 624 (APYIVGDVV) [compound 624], the Restriction entry is reported as “CD8”.
625 (LTAVVIPTK) [compound 625]: the Restriction entry is listed as “CD8”.
626 (ALRKVPTDNY) [compound 626]: the Restriction result was “CD8”.
Turning to 628 (PTDNYITTY) [compound 628], the Restriction entry is given as “CD8”.
With 629 (TDNYITTY) [compound 629], the Restriction result was “CD8”.
630 (TTYPGQGLNGY) [compound 630]: the Restriction entry is given as “CD8”.
Regarding 631 (KQEILGTVSW) [compound 631], the Restriction result is “CD8”.
For the substance 632 (QEILGTVSW) [compound 632], the Restriction entry is recorded as “CD8”.
As for 633 (MLAHAEETR) [compound 633], the Restriction entry was “CD8”.
With 634 (AHAEETRKL) [compound 634], the Restriction result was “CD8”.
Consider 635 (KLMPVCVET) [compound 635], for which the Restriction entry is on record as “CD8”.
Regarding 636 (AIVSTIQRKYK) [compound 636], the Restriction entry is reported as “CD8”.
In the case of 637 (AIVSTIQRK) [compound 637], the Restriction entry was “CD8”.
Take 638 (VVDYGARFY) [compound 638]: the Restriction result is “CD8”.
Consider 639 (SLINTLNDL) [compound 639], for which the Restriction result is given as “CD8”.
Turning to 640 (VSSPDAVTAY) [compound 640], the Restriction result was “CD8”.
Turning to 641 (TISLAGSYK) [compound 641], the Restriction entry is listed as “CD8”.
On to 642 (ISLAGSYKDW) [compound 642], for which the Restriction entry is “CD8”.
In the case of 643 (SVYYTSNPTTF) [compound 643], the Restriction entry is reported as “CD8”.
Turning to 644 (YYTSNPTTF) [compound 644], the Restriction entry is on record as “CD8”.
Turning to 645 (YYTSNPTTFHL) [compound 645], the Restriction entry is recorded as “CD8”.
For 646 (TSNPTTFHL) [compound 646], the Restriction entry is on record as “CD8”.
For the substance 647 (HLDGEVITF) [compound 647], the Restriction result is given as “CD8”.
As to 648 (GEVITFDNL) [compound 648], the Restriction result was “CD8”.
In the case of 649 (ITFDNLKTL) [compound 649], the Restriction entry is given as “CD8”.
Regarding 650 (NLKTLLSL) [compound 650], the Restriction entry was “CD8”.
As for 651 (RTIKVFTTV) [compound 651], the Restriction entry was “CD8”.
652 (NINLHTQVV) [compound 652]: the Restriction entry is reported as “CD8”.
In the case of 653 (HTQVVDMSMTY) [compound 653], the Restriction result was “CD8”.
Regarding 654 (QVVDMSMTY) [compound 654], the Restriction result was “CD8”.
As for 655 (MSMTYGQQF) [compound 655], the Restriction entry is listed as “CD8”.
For 656 (KPHNSHEGKTF) [compound 656], the Restriction result was “CD8”.
As for 657 (LRVEAFEYY) [compound 657], the Restriction entry is reported as “CD8”.
For 658 (FEYYHTTDPSF) [compound 658], the Restriction result is listed as “CD8”.
Consider 659 (HTTDPSFLGR) [compound 659], for which the Restriction result is “CD8”.
For the substance 660 (HTTDPSFLGRY) [compound 660], the Restriction result is on record as “CD8”.
Take 661 (TTDPSFLGRY) [compound 661]: the Restriction entry is recorded as “CD8”.
662 (TTDPSFLGRYM) [compound 662]: the Restriction entry was “CD8”.
With 663 (FLGRYMSAL) [compound 663], the Restriction entry is reported as “CD8”.
With 664 (YMSALNHTK) [compound 664], the Restriction entry is given as “CD8”.
In the case of 665 (MSALNHTKK) [compound 665], the Restriction entry is “CD8”.
666 (MSALNHTKKW) [compound 666]: the Restriction result was “CD8”.
Consider 667 (SALNHTKKW) [compound 667], for which the Restriction result is on record as “CD8”.
On to 668 (WKYPQVNGL) [compound 668], for which the Restriction result was “CD8”.
In the case of 669 (YPQVNGLTSI) [compound 669], the Restriction result is on record as “CD8”.
As for 670 (YLATALLTL) [compound 670], the Restriction entry is recorded as “CD8”.
Turning to 672 (ARAGEAANF) [compound 672], the Restriction result is listed as “CD8”.
673 (GEAANFCAL) [compound 673]: the Restriction entry is “CD8”.
For the substance 675 (LGDVRETMSY) [compound 675], the Restriction result is reported as “CD8”.
As for 676 (VRETMSYLF) [compound 676], the Restriction result is reported as “CD8”.
For the substance 677 (VMYMGTLSY) [compound 677], the Restriction entry is given as “CD8”.
For the substance 678 (SAPPAQYEL) [compound 678], the Restriction result is listed as “CD8”.
In the case of 679 (FTCASEYTGNY) [compound 679], the Restriction entry was “CD8”.
Regarding 681 (YTGNYQCGHY) [compound 681], the Restriction result is “CD8”.
In the case of 683 (ITDVFYKENSY) [compound 683], the Restriction result is “CD8”.
On to 684 (DVFYKENSY) [compound 684], for which the Restriction entry is listed as “CD8”.
In the case of 686 (YTTTIKPVTY) [compound 686], the Restriction entry is given as “CD8”.
Take 687 (CTEIDPKLDNY) [compound 687]: the Restriction result is on record as “CD8”.
688 (TEIDPKLDNYY) [compound 688]: the Restriction entry is listed as “CD8”.
Turning to 689 (EIDPKLDNY) [compound 689], the Restriction result is on record as “CD8”.
690 (NYYKKDNSY) [compound 690]: the Restriction entry is reported as “CD8”.
